Results published in patent US20230265082A1, “SUBSTITUTED 1,2,4-OXADIAZOLES AS SMALL MOLECULE INHIBITORS OF UBIQUITIN-SPECIFIC PROTEASE 28” (Dana-Farber Cancer Institute, Inc., priority 2020, published 2023).
pIC50: −log10 of the molar value.

Each compound was assayed against T1, USP28 (Homo sapiens, UniProt Q96RU2) (assay: Competitive activity-based protein profiling (target engagement, Ub-VME probe, Western blot)). Conditions: K562 cells lysed, treated with compound for 1 h followed by Ub-VME; Western blot (FIG. 3).
T1 sequence (Q96RU2 1-1077): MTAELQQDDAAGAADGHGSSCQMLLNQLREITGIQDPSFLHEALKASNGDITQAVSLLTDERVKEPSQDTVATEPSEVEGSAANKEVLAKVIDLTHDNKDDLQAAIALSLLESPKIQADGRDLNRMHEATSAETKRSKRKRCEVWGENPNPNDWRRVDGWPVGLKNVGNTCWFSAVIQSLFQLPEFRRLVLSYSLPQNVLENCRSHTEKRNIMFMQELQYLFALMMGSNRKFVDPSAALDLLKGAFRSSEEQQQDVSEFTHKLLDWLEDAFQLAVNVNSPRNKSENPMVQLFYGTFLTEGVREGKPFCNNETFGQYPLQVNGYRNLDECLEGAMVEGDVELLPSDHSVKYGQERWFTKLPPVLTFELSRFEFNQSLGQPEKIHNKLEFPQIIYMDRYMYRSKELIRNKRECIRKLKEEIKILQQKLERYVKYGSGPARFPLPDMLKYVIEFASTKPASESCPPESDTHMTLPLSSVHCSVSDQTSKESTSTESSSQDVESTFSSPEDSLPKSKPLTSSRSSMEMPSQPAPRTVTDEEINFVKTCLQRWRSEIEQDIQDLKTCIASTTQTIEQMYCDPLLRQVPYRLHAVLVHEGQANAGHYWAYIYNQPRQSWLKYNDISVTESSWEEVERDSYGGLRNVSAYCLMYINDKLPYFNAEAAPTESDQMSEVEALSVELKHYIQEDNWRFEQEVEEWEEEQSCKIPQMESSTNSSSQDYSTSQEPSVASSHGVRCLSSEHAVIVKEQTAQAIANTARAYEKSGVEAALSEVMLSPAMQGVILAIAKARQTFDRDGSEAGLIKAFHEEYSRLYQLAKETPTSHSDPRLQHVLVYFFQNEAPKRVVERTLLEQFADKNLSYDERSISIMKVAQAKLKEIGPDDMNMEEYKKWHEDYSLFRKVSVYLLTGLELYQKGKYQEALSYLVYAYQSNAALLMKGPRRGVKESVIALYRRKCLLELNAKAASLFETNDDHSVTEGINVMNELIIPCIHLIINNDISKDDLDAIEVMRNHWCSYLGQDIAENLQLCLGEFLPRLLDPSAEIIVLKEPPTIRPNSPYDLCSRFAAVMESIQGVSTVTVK
Type: binding
Experimental: K562 cells were lysed and treated with indicated concentrations of compound 8 for 1 h followed by incubation with Ub-VME. Ub-VME covalently modifies USP28, resulting in higher MW band observed by Western blot.
Cells were pelleted, washed with PBS buffer, lysed on ice (20 mM Tris pH 8, 150 mM NaCl, 1% NP-40, 10% glycerol, 1 mM TCEP, phosphatase inhibitor cocktails (Sigma P5726 and Calbiochem 524624), and protease inhibitors (pepstatin, leupeptin, PMSF, and aprotinin), and clarified by centrifugation. Protein content was quantified by BCA and diluted to 2 mg/mL in lysis buffer. Compounds were added at desired concentrations and incubated at room temperature for 30 minutes. Samples were then supplemented with 2 uM HA-Ub-VS and incubated at room temperature with shaking for 15 minutes. Reactions were quenched with 4×LDS sample buffer (Thermo Fisher B0007) supplemented with 10% BME, vortexed vigorously, and heated to 95° C. for 5 minutes. Samples were resolved by SDS-PAGE and analyzed by Western blot with the indicated antibodies.

Structure (SMILES) | labeling of USP28 by covalent Ub-VME probe (target engagement)
O=c1ccc(-c2noc(Cc3ccc(Cl)c(Cl)c3)n2)c[nH]1 [Compound 8] | prevents labeling of USP28 by the covalent Ub-VME probe

Each compound was assayed against T1, USP28 (assay: Ubiquitin-Rhodamine110 assay). Conditions: USP28 at 1 nM, 30 minutes pre-incubation at room temperature, Ubiquitin-Rho110 125 nM.
Type: biochemical
Experimental: USP28 (at 1 nM) was pre-incubated with different concentrations of inhibitors or DMSO as a control in 50 mM Tris pH 8, 50 mM NaCl, 0.002% Tween-20, 5 mM DTT. Compounds and protein were incubated for 30 minutes at room temperature prior to the addition of Ubiquitin-Rho110 (Boston Biochem) substrate for a final concentration of 125 nM. The initial rate of the reaction was measured by collecting fluorescence data at one-minute interval over 30-minute period using a Clariostar® fluorescence plate reader at excitation and emission wavelength of 485 nm and 535 nm, respectively. The calculated initial rate values were plotted against inhibitor concentrations to determine IC50s. All the experimental data were plotted using GraphPad Prism®.

Structure (SMILES) | pIC50
c1ccc2cc(Cc3nc(-c4ccncc4)no3)ccc2c1 [Compound 1] | 5.00 to 6.00
c1ccc(-c2nc(-c3cccnc3)no2)nc1 [Compound 2] | < 4.00
Clc1ccc(Cc2nc(-c3ccc(Cl)nc3)no2)cc1 [Compound 3] | 5.00 to 6.00
O=c1ccc(-c2noc(Cc3ccc(Cl)cc3)n2)c[nH]1 [Compound 4] | 5.00 to 6.00
Clc1ccc(-c2noc(Cc3ccc(Cl)c(Cl)c3)n2)cn1 [Compound 5] | > 6.00
Clc1ccc(-c2noc(Cc3ccccc3)n2)cn1 [Compound 6] | > 6.00
O=c1ccc(-c2noc(Cc3ccccc3)n2)c[nH]1 [Compound 7] | 5.00 to 6.00
O=c1ccc(-c2noc(Cc3ccc(Cl)c(Cl)c3)n2)c[nH]1 [Compound 8] | > 6.00
O=c1ccc(-c2nc(Cc3ccc(Cl)c(Cl)c3)no2)c[nH]1 [Compound 9] | 5.00 to 6.00
O=c1ccc(-c2noc(Cc3ccc(Cl)c(Cl)c3)n2)cn1Cc1ccccc1 [Compound 10] | 5.00 to 6.00
O=c1ccc(-c2nc(-c3ccc(OC(F)(F)F)cc3)no2)cn1Cc1ccnc(Cl)c1 [Compound 11] | < 4.00
CN1CCN(c2cc(Cn3cc(-c4nc(-c5ccc(OC(F)(F)F)cc5)no4)ccc3=O)ccn2)CC1 [Compound 12] | < 4.00
CN(C)c1ccc(-c2noc(Cc3ccc(Cl)c(Cl)c3)n2)cn1 [Compound 13] | < 4.00
COC(=O)c1ccc(Cc2noc(Cc3ccc(Cl)c(Cl)c3)n2)cc1 [Compound 14] | < 4.00
O=C(O)c1ccc(Cc2noc(Cc3ccc(Cl)c(Cl)c3)n2)cc1 [Compound 15] | 4.00 to 5.00
O=c1ccc(-c2noc(Cc3cc(F)cc(F)c3)n2)c[nH]1 [Compound 16] | 5.00 to 6.00
N[C@@H](Cc1ccccc1)c1nc(-c2ccc(=O)[nH]c2)no1 [Compound 17] | < 4.00
O=C(O)c1cccc(-c2noc(Cc3ccc(Cl)c(Cl)c3)n2)c1 [Compound 18] | 4.00 to 5.00
Nc1ccc(-c2noc(Cc3ccc(Cl)c(Cl)c3)n2)cn1 [Compound 19] | > 6.00
CCC(c1ccccc1)c1nc(-c2ccc(Cl)nc2)no1 (centres unmarked) [Compound 20] | < 4.00
CCC(c1ccccc1)c1nc(-c2ccc(=O)[nH]c2)no1 (centres unmarked) [Compound 21] | < 4.00
Clc1ccc(-c2noc(Cc3ccc4ccccc4c3)n2)cn1 [Compound 22] | > 6.00
Clc1ccc(-c2noc(Cc3cccc4ccccc34)n2)cn1 [Compound 23] | 5.00 to 6.00
O=c1ccc(-c2noc(Cc3cccc(Cl)c3)n2)c[nH]1 [Compound 28] | > 6.00
Clc1cccc(Cc2nc(-c3ccc(Cl)nc3)no2)c1 [Compound 29] | 5.00 to 6.00
Nc1ccc(Cc2nc(-c3ccc(Cl)nc3)no2)cc1 [Compound 30] | 4.00 to 5.00
O=[N+]([O-])c1cc(Cc2nc(-c3ccc(Cl)nc3)no2)ccc1Cl [Compound 31] | 5.00 to 6.00
O=C(Nc1ccc(-c2noc(Cc3ccc(Cl)c(Cl)c3)n2)cn1)[C@H]1CCNC1 [Compound 32] | 5.00 to 6.00
